Laboratory results from PubChem BioAssay AID1963958 (Molecular Pharmacology Branch, DTP, NCI, 2024).
“And” between values parts separate entries of the source, which are not always exact repeats. Identical values can stand only once.

System: MDA-MB-231 multicell spheroids, viability
Test: Anticancer human tumor MDA-MB-231 cell line growth inhibition [PI3K];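 further: spheroids exposed to agents for seven days before reading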;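 on viability, T/C: percent of vehicle control luminescence with DMSO treated spheroids as 100%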
Conditions: for viability, T/C: stronger effect = lower value
Description: Combinatorial screen of targeted agents with the PI3K inhibitors inavolisib, alpelisib, duvelisib, and copanlisib in multi-cell type tumor spheroids
A high-throughput screen of multi-cell type tumor spheroids was designed to identify active combinations of targeted small molecules and PI3K pathway inhibitors. Complex spheroids include a stromal component modeled by human endothelial cells (HUVEC) and fibroblasts modeled by human mesenchymal stem cells (MSCs). The concentration ranges selected for each drug and investigational agent were based upon clinically achievable concentrations if the clinical Cmax of the agent was known.
Compounds. The drugs and investigational agents: inavolisib (NSC800729), alpelisib (NSC765974), duvelisib (NSC772469), copanlisib (NSC816437), ipatasertib (NSC767898), afuresertib (NSC778305), talazoparib (NSC767125), sapanisertib (NSC764658), selumetinib (NSC741078), tovorafenib (DAY101, NSC766906), vemurafenib (NSC761431), ravoxertinib (NSC781343), sotorasib (NSC818433), MRTX1133 (NSC 836407), abemaciclib (NSC 768073), palbociclib (NSC758247), venetoclax (NSC 766270), SY5609 (NSC837396), enzalutamide (NSC755605), and darolutamide (NSC825331), were obtained from the National Cancer Institute (NCI) Developmental Therapeutics Program Chemical Repository. The FDA-approved anticancer drug set is available from the NCI Developmental Therapeutics Program. […] The stock solutions were prepared in dimethyl sulfoxide (DMSO, Sigma-Aldrich, St. Louis, MO, cat. D2650) at 800-fold the tested concentration and stored at -70 degrees C prior to their use. All drugs and investigational agents were tested over a range starting from a high concentration at or near the clinical Cmax and decreasing in half-log increments. If the clinical Cmax for an agent had not been determined, the highest concentration tested was 10 microM.
Cell Culture. All cells were maintained in an incubator at 37 degrees C and 5% CO2 with 95% humidity. The PDC lines were cultured according to standard operating procedures established by the NCI PDMR (https://pdmr.cancer.gov/sops/default.htm). All PDCs were thawed and cultured in Matrigel-coated flasks prepared with a working solution of 1X Ham's F-12 nutrient mix, without supplementation (Invitrogen, Waltham, MA, cat. 11765054), 100 U/mL penicillin-streptomycin (Invitrogen, cat. 15140122), and 2.5% Matrigel (Corning Inc., Corning, NY, cat. 354248) for the first three passages. The 354836-022-R-J1-PDC, 475296-252-R-J1-PDC, and 997726-040-R-J2-PDC lines were cultured in 6A media, which includes advanced DMEM/F-12 (Thermo Fisher Scientific, cat. 12634028), 10 mM HEPES (Thermo Fisher Scientific, cat. 15630080), 1X GlutaMAX supplement (Thermo Fisher Scientific, cat. 35050061), 0.1 mg/mL primocin (InvivoGen, San Diego, CA, cat. ant-pm-2), 10% defined fetal bovine serum, heat inactivated (HyClone Laboratories Inc., Logan, UT, cat. SH30070.03HI), 50% L-WRN conditioned media (ATCC, cat. CRL-3276), 1.25 mM N-Acetyl-L-cysteine (Sigma-Aldrich, cat. A9165), 10 mM nicotinamide (Sigma-Aldrich, cat. N0636), 1X B-27 supplement (Thermo Fisher Scientific, cat. 17504044), 1X N-2 supplement (Thermo Fisher Scientific, cat. 17502048), and 10 microM Y-27632 dihydrochloride (Tocris Bioscience, Bristol, United Kingdom, cat. 1254). The 624824-186-R-J2-PDC line was cultured in 6C/Colon 1B media, which includes all 6A media components plus 50 ng/mL human EGF recombinant protein (Thermo Fisher Scientific, cat. PHG0311). […]

## C#Cc1c(F)ccc2cc(O)cc(-c3ncc4c(N5CC6CCC(C5)N6)nc(OCC56CCCN5CC(F)C6)nc4c3F)c12 (stereo not given)
Compound 0.0316 µM
  viability, T/C: 110% [middle of 4 runs]
Compound 0.1 µM
  viability, T/C: 104% [middle of 4 runs]
Compound 0.316 µM
  viability, T/C: 100% [middle of 4 runs]
Compound 1 µM
  viability, T/C: 98.5% [middle of 4 runs]
Compound 10 µM
  viability, T/C: 59.5% [middle of 4 runs]
Curve of compound
  IC50: > 10000 nM

## C=CC(=O)N1CCN(c2nc(=O)n(-c3c(C)ccnc3C(C)C)c3nc(-c4c(O)cccc4F)c(F)cc23)C(C)C1 (stereo not given)
Compound 0.0316 µM
  viability, T/C: 109% [middle of 4 runs]
Compound 0.1 µM
  viability, T/C: 101% [middle of 4 runs]
Compound 0.316 µM
  viability, T/C: 124% [middle of 4 runs]
Compound 3.16 µM
  viability, T/C: 136% [middle of 4 runs]
Compound 10 µM
  viability, T/C: 127% [middle of 4 runs]
Curve of compound
  IC50: > 10000 nM

## CC(Cn1ccc(-c2ccc(C#N)c(Cl)c2)n1)NC(=O)c1cc(C(C)O)[nH]n1 (stereo not given)
Compound 0.0316 µM
  viability, T/C: 106% [middle of 4 runs]
Compound 0.1 µM
  viability, T/C: 99% [middle of 4 runs]
Compound 0.316 µM
  viability, T/C: 111% [middle of 4 runs]
Compound 1 µM
  viability, T/C: 107% [middle of 4 runs]
Compound 3.16 µM
  viability, T/C: 100% [middle of 4 runs]
Compound 10 µM
  viability, T/C: 92.5% [middle of 4 runs]
Curve of compound
  IC50: > 10000 nM

## CC1(C)CCC(CN2CCN(c3ccc(C(=O)NS(=O)(=O)c4ccc(NCC5CCOCC5)c([N+](=O)[O-])c4)c(Oc4cnc5[nH]ccc5c4)c3)CC2)=C(c2ccc(Cl)cc2)C1
Compound 0.0316 µM
  viability, T/C: 108% [middle of 4 runs]
Compound 0.1 µM
  viability, T/C: 103% [middle of 4 runs]
Compound 0.316 µM
  viability, T/C: 109% [middle of 4 runs]
Compound 1 µM
  viability, T/C: 113% [middle of 4 runs]
Compound 3.16 µM
  viability, T/C: 113% (2×) and 112% and 119%

## CC1(C)CCC(Nc2ncc(C(F)(F)F)c(-c3c[nH]c4c(P(C)(C)=O)c(C#N)ccc34)n2)CN1 (stereo not given)
Compound 0.0316 µM
  viability, T/C: 44.8% [middle of 4 runs]
Compound 0.1 µM
  viability, T/C: 42.5% [middle of 4 runs]
Compound 0.316 µM
  viability, T/C: 44.1% [middle of 4 runs]
Compound 1 µM
  viability, T/C: 54.3% [middle of 4 runs]
Compound 3.16 µM
  viability, T/C: 56.4% [middle of 4 runs]
Compound 10 µM
  viability, T/C: 5.5% [middle of 4 runs]
Curve of compound
  IC50: 31.6 nM and 56.2 nM

## CCCS(=O)(=O)Nc1ccc(F)c(C(=O)c2c[nH]c3ncc(-c4ccc(Cl)cc4)cc23)c1F
Compound 0.0316 µM
  viability, T/C: 113% [middle of 4 runs]
Compound 0.1 µM
  viability, T/C: 111% [middle of 4 runs]
Compound 0.316 µM
  viability, T/C: 104% [middle of 4 runs]
Compound 1 µM
  viability, T/C: 89.3% [middle of 4 runs]
Compound 3.16 µM
  viability, T/C: 68.9% [middle of 4 runs]
Compound 10 µM
  viability, T/C: 34.8% [middle of 4 runs]
Curve of compound
  IC50: 5.82 µM [middle of 4 runs]

## CNC(=O)c1ccc(N2C(=S)N(c3ccc(C#N)c(C(F)(F)F)c3)C(=O)C2(C)C)cc1F
Compound 0.0316 µM
  viability, T/C: 110% [middle of 4 runs]
Compound 0.1 µM
  viability, T/C: 111% [middle of 4 runs]
Compound 0.316 µM
  viability, T/C: 113% [middle of 4 runs]
Compound 1 µM
  viability, T/C: 107% [middle of 4 runs]
Compound 3.16 µM
  viability, T/C: 98.3% [middle of 4 runs]
Compound 10 µM
  viability, T/C: 88.7% [middle of 4 runs]
Curve of compound
  IC50: > 10000 nM

## C[C@@H](NC(=O)c1ncnc(N)c1Cl)c1ncc(C(=O)Nc2cc(C(F)(F)F)c(Cl)cn2)s1
Compound 0.0316 µM
  viability, T/C: 139% [middle of 4 runs]
Compound 3.16 µM
  viability, T/C: 77.3% [middle of 4 runs]
Compound 10 µM
  viability, T/C: 64.8% [middle of 4 runs]
Curve of compound
  IC50: > 10000 nM

## Cn1ncc(Cl)c1-c1cc(C(=O)NC(CN)Cc2cccc(F)c2)sc1Cl (stereo not given)
Compound 0.0316 µM
  viability, T/C: 111% [middle of 4 runs]
Compound 0.1 µM
  viability, T/C: 99.8% [middle of 4 runs]
Compound 0.316 µM
  viability, T/C: 95.8% [middle of 4 runs]
Compound 1 µM
  viability, T/C: 77.2% [middle of 4 runs]
Compound 3.16 µM
  viability, T/C: 52.5% [middle of 4 runs]
Compound 10 µM
  viability, T/C: 28.8% [middle of 4 runs]
Curve of compound
  IC50: 3.47 µM [middle of 4 runs]

## Cn1nccc1Nc1nccc(-c2ccn(C(CO)c3ccc(Cl)c(F)c3)c(=O)c2)n1 (stereo not given)
Compound 0.0316 µM
  viability, T/C: 87% [middle of 4 runs]
Compound 0.1 µM
  viability, T/C: 70.7% [middle of 4 runs]
Compound 0.316 µM
  viability, T/C: 61.5% [middle of 4 runs]
Compound 1 µM
  viability, T/C: 50.8% and 49.5% and 49.4% (2×)
Compound 3.16 µM
  viability, T/C: 41.8% [middle of 4 runs]
Compound 10 µM
  viability, T/C: 30.1% [middle of 4 runs]
Curve of compound
  IC50: 905 nM [middle of 4 runs]

## Cn1cnc2c(F)c(Nc3ccc(Br)cc3Cl)c(C(=O)NOCCO)cc21 + CC(Nc1ccc2c(c1)OCCn1cc(N3C(=O)OCC3C(F)F)nc1-2)C(N)=O
Curve of first compound, second compound 0.00316 µM
  IC50: 674 nM
Curve of first compound, second compound 0.01 µM
  IC50: 1100 nM
Curve of first compound, second compound 0.0316 µM
  IC50: 34.1 nM
Curve of first compound, second compound 0.1 µM
  IC50: < 9.49 nM
Curve of first compound, second compound 0.316 µM
  IC50: < 9.49 nM
Curve of first compound, second compound 1 µM
  IC50: < 9.49 nM
Second compound 0.00316 µM, first compound 0.00949 µM
  viability, T/C: 67.7%
Second compound 0.00316 µM, first compound 0.03 µM
  viability, T/C: 60%
Second compound 0.00316 µM, first compound 0.0949 µM
  viability, T/C: 58.2%
Second compound 0.00316 µM, first compound 0.3 µM
  viability, T/C: 56.2%
Second compound 0.00316 µM, first compound 0.949 µM
  viability, T/C: 49.4%
Second compound 0.00316 µM, first compound 3 µM
  viability, T/C: 32%
Second compound 0.01 µM, first compound 0.00949 µM
  viability, T/C: 56.8%
Second compound 0.01 µM, first compound 0.03 µM
  viability, T/C: 56.2%
Second compound 0.01 µM, first compound 0.0949 µM
  viability, T/C: 54.3%
Second compound 0.01 µM, first compound 0.3 µM
  viability, T/C: 53.9%
Second compound 0.01 µM, first compound 0.949 µM
  viability, T/C: 53%
Second compound 0.01 µM, first compound 3 µM
  viability, T/C: 30.8%
Second compound 0.0316 µM, first compound 0.00949 µM
  viability, T/C: 56.1%
Second compound 0.0316 µM, first compound 0.03 µM
  viability, T/C: 48.1%
Second compound 0.0316 µM, first compound 0.0949 µM
  viability, T/C: 46.1%
Second compound 0.0316 µM, first compound 0.3 µM
  viability, T/C: 44.8%
Second compound 0.0316 µM, first compound 0.949 µM
  viability, T/C: 43.2%
Second compound 0.0316 µM, first compound 3 µM
  viability, T/C: 23%
Second compound 0.1 µM, first compound 0.00949 µM
  viability, T/C: 50.9%
Second compound 0.1 µM, first compound 0.03 µM
  viability, T/C: 41.7%
Second compound 0.1 µM, first compound 0.0949 µM
  viability, T/C: 44%
Second compound 0.1 µM, first compound 0.3 µM
  viability, T/C: 42.1%
Second compound 0.1 µM, first compound 0.949 µM
  viability, T/C: 36.3%
Second compound 0.1 µM, first compound 3 µM
  viability, T/C: 16.7%
Second compound 0.316 µM, first compound 0.00949 µM
  viability, T/C: 42.5%
Second compound 0.316 µM, first compound 0.03 µM
  viability, T/C: 42%
Second compound 0.316 µM, first compound 0.0949 µM
  viability, T/C: 40.5%
Second compound 0.316 µM, first compound 0.3 µM
  viability, T/C: 39.8%
Second compound 0.316 µM, first compound 0.949 µM
  viability, T/C: 33.4%
Second compound 0.316 µM, first compound 3 µM
  viability, T/C: 15.4%
Second compound 1 µM, first compound 0.00949 µM
  viability, T/C: 41.1%
Second compound 1 µM, first compound 0.03 µM
  viability, T/C: 35.1%
Second compound 1 µM, first compound 0.0949 µM
  viability, T/C: 38.4%
Second compound 1 µM, first compound 0.3 µM
  viability, T/C: 37.7%
Second compound 1 µM, first compound 0.949 µM
  viability, T/C: 33.9%
Second compound 1 µM, first compound 3 µM
  viability, T/C: 15.3%
